Test results taken from ChEMBL document CHEMBL1151583, “Conformationally-restricted analogs of TXA2 antagonist SQ 33,961: Receptor binding conformation of the carboxyl sidechain” (Bioorg Med Chem Lett, 1991).
pIC50: −log10 of the molar value.

Organism: Homo sapiens
Assay: In vitro ability to inhibit arachidonic acid induced platelet aggregation (AAIPA)
Type: functional
Settings: read-out: I50

| pIC50 | Compound |
| --- | --- |
| 8.10 | O=C(O)CCc1ccccc1/C=C1\C2CCC(O2)C1c1nc(C(=O)NCCCCC2CCCCC2)co1 (configuration not stated) |
| 4.90 | O=C(O)CCc1ccccc1/C=C1/C2CCC(O2)C1c1nc(C(=O)NCCCCC2CCCCC2)co1 (configuration not stated) |
